Test [1] relates to PC3 cells. Description: PC3 growth inhibition (Cell-titer glo, 72 hours). The format is cell-based. Conditions: Homo sapiens, PC-3, 72 h, read-out: Percent Viability, PC3 cells, compound concentration 1.667 μM, 72 hours. The method, boiled down: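 PC3 cells grown in RPMI1640 plated at 8×10^4 cells/ml, incubated overnight, then exposed to compound diluted in AIM serum-free medium for 72 h at 37 °C, 5% CO2. Luminescence by CellTiter-Glo relative to DMSO controls; % viability at single concentration, GI50 or LD50 from concentration-response curves.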

For test [2], the target named is hNAMPT protein (Homo sapiens (Human), UniProt P43490). Kind of test: NAMPT enzyme assay (TR-FRET/HTRF with BodiPY ligand). Format: binding. Conditions: for inhibition at 1 µM: NAMPT inhibition at compound concentration 1 μM, read-out: Percent Inhibition; for IC50: NAMPT inhibition, IC50 range class. A digest of the protocol: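 His-tagged hNAMPT with anti-6His-Tb, incubated with compound and BodiPY ligand for 1 h at rt in the dark, in Tris-HCl pH 7.5 buffer with DTT, NaCl, MgCl2 and Tween 20. TR-FRET measured with 320 nm excitation as the 520/486 nm emission ratio. IC50 fitted relative to DMSO controls.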

Where only a bound is given, the exact number is not on record here.

By inhibition is commonly meant the drop in the measured response relative to a control, in per cent. Usually IC50 stands for the point on the concentration scale where inhibition reaches its midpoint. High values mean weaker potency in that assay, low ones greater potency in that assay.

hNAMPT protein, sequence (P43490 whole entry): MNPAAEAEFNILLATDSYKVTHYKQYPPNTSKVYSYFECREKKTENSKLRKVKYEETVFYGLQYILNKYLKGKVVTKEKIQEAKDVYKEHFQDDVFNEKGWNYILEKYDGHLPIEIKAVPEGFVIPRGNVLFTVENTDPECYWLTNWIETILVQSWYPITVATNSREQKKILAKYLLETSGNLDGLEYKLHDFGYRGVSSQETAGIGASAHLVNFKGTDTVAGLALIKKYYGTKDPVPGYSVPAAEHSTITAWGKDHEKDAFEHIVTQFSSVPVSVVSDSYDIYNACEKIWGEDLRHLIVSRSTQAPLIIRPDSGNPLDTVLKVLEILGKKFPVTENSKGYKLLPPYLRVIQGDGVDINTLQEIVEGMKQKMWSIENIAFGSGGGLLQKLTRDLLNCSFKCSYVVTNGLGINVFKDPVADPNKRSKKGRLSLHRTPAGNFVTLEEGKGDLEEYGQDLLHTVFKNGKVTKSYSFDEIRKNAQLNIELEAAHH

For the compound `CCOc1cc(-c2ccc(F)cc2)nc2cc(C(=O)NCCc3c[nH]nc3C)ccc12` [Compound I-132, 4-ethoxy-2-(4-fluorophenyl)-N-[2-(3-methyl-1H-pyrazol-4-yl)ethyl]quinoline-7-carboxamide], the viability at 1.667 µM in test [1] came to 3%. Further, in test [2], the inhibition at 1 µM is more than 99% and the IC50 is less than 0.01 µM.
Taken in the same sequence, the figures for `CCOc1cc(-c2ccc(F)cc2)nc2cc(C(=O)NCCCc3n[nH]nc3C)ccc12` [Compound I-133, 4-ethoxy-2-(4-fluorophenyl)-N-[3-(5-methyl-2H-1,2,3-triazol-4-yl)propyl]quinoline-7-carboxamide] were 2%, more than 99% and less than 0.01 µM.
Taken in the same sequence, the figures for `CCOc1cc(-c2ccc(F)cc2)nc2cc(C(=O)NCCc3cc(N)[nH]n3)ccc12` [Compound I-134, N-[2-(5-amino-1H-pyrazol-3-yl)ethyl]-4-ethoxy-2-(4-fluorophenyl)quinoline-7-carboxamide] were 3%, 93% and 0.01 to 0.05 µM.
For `CCOc1cc(C2CCOCC2)nc2cc(C(=O)NCCCc3nnc[nH]3)ccc12` [Compound I-135, 4-ethoxy-2-(tetrahydro-2H-pyran-4-yl)-N-[3-(4H-1,2,4-triazol-3-yl)propyl]quinoline-7-carboxamide] the same measures were 4%, 71% and more than 0.1 µM.
`CCOc1cc(-c2cc(C)nc(OC)c2)nc2cc(C(=O)NCCCc3nnc[nH]3)ccc12` [Compound I-136, 4-ethoxy-2-(2-methoxy-6-methylpyridin-4-yl)-N-[3-(4H-1,2,4-triazol-3-yl)propyl]quinoline-7-carboxamide]: the viability at 1.667 µM in test [1] worked out at 2%. Moreover, in test [2], the inhibition at 1 µM was found to be 98% and the IC50 is less than 0.01 µM.
Taken in the same sequence, the figures for `CCOc1cc(-c2cccc(S(C)(=O)=O)c2)nc2cc(C(=O)NCCCc3nnc[nH]3)ccc12` [Compound I-137, 4-ethoxy-2-[3-(methylsulfonyl)phenyl]-N-[3-(4H-1,2,4-triazol-3-yl)propyl]quinoline-7-carboxamide] were 2%, 97% and 0.01 to 0.05 µM.
For `CCOc1cc(-c2ccc(OC)nc2C)nc2cc(C(=O)NCCCc3nnc[nH]3)ccc12` [Compound I-138, 4-ethoxy-2-(6-methoxy-2-methylpyridin-3-yl)-N-[3-(4H-1,2,4-triazol-3-yl)propyl]quinoline-7-carboxamide] the same measures were 2%, 89% and 0.05 to 0.1 µM.
For `CCOc1cc(-c2ccncc2OC)nc2cc(C(=O)NCCCc3nnc[nH]3)ccc12` [Compound I-139, 4-ethoxy-2-(3-methoxypyridin-4-yl)-N-[3-(4H-1,2,4-triazol-3-yl)propyl]quinoline-7-carboxamide] the same measures were 2%, 99% and 0.01 to 0.05 µM.
Take `CCOc1cc(C2=CCOCC2)nc2cc(C(=O)NCCCc3nnc[nH]3)ccc12` [Compound I-140, 2-(3,6-dihydro-2H-pyran-4-yl)-4-ethoxy-N-[3-(4H-1,2,4-triazol-3-yl)propyl]quinoline-7-carboxamide]: in test [1], the viability at 1.667 µM was determined as 2%. Besides, in test [2], the inhibition at 1 µM was 91% and the concentration for half-maximal inhibition (IC50) lay in the range of 0.05 to 0.1 µM.
With `CCOc1cc(-c2ccc(F)cc2)nc2cc(C(=O)NCc3nc(N)n[nH]3)ccc12` [Compound I-141, N-[(3-amino-1H-1,2,4-triazol-5-yl)methyl]-4-ethoxy-2-(4-fluorophenyl)quinoline-7-carboxamide], the viability at 1.667 µM in test [1] worked out at 9%. In test [2], the inhibition at 1 µM is 82% and the IC50 is more than 0.1 µM.
Taken in the same sequence, the figures for `CCOc1cc(-c2ccc(F)cc2)nc2cc(C(=O)NCCc3nnc(N)[nH]3)ccc12` [Compound I-142, N-[2-(5-amino-4H-1,2,4-triazol-3-yl)ethyl]-4-ethoxy-2-(4-fluorophenyl)quinoline-7-carboxamide] were 14%, 89% and more than 0.1 µM.
For `CCOc1cc(-c2ccc(OC)nc2OC)nc2cc(C(=O)NCCCc3nnc[nH]3)ccc12` [Compound I-143, 2-(2,6-dimethoxypyridin-3-yl)-4-ethoxy-N-[3-(4H-1,2,4-triazol-3-yl)propyl]quinoline-7-carboxamide] the same measures were 2%, 97% and 0.01 to 0.05 µM.
Taken in the same sequence, the figures for `CCOc1cc(-c2cccnc2OC)nc2cc(C(=O)NCCc3c[nH]nc3C)ccc12` [Compound I-144, 4-ethoxy-2-(2-methoxypyridin-3-yl)-N-[2-(3-methyl-1H-pyrazol-4-yl)ethyl]quinoline-7-carboxamide] were 2%, 94% and 0.01 to 0.05 µM.
Regarding `CCOc1cc(-c2cnc(OC)cc2C)nc2cc(C(=O)NCCCc3nnc[nH]3)ccc12` [Compound I-145, 4-ethoxy-2-(6-methoxy-4-methyl-3-pyridyl)-N-[3-(4H-1,2,4-triazol-3-yl)propyl]quinoline-7-carboxamide], the viability at 1.667 µM in test [1] is 2%. In test [2], the inhibition at 1 µM came to 86% and the IC50 is more than 0.1 µM.
Taken in the same sequence, the figures for `CCOc1cc(-c2ccnc(C)c2)nc2cc(C(=O)NCCc3c[nH]nc3C)ccc12` [Compound I-146, 4-ethoxy-N-[2-(3-methyl-1H-pyrazol-4-yl)ethyl]-2-(2-methylpyridin-4-yl)quinoline-7-carboxamide] were 2%, 87% and 0.05 to 0.1 µM.
Taken in the same sequence, the figures for `CCCc1cc(-c2ccc(F)cc2)nc2cc(C(=O)NCCCc3cc[nH]n3)ccc12` [Compound I-147, 2-(4-fluorophenyl)-4-propyl-N-[3-(1H-pyrazol-3-yl)propyl]quinoline-7-carboxamide] were 2%, 92% and 0.05 to 0.1 µM.
With `O=C(NCCCc1nnc[nH]1)c1ccc2c(-n3ccnc3)cc(-c3ccc(F)cc3)nc2c1` [Compound I-148, 2-(4-fluorophenyl)-4-(1H-imidazol-1-yl)-N-[3-(4H-1,2,4-triazol-3-yl)propyl]quinoline-7-carboxamide], the viability at 1.667 µM in test [1] stood at 1%. Further, in test [2], the inhibition at 1 µM was 99% and the IC50 was less than 0.01 µM.
For `CCOc1cc(-c2ccnc(C)c2)nc2cc(C(=O)NCCCc3ccn[nH]3)ccc12` [Compound I-149, 4-ethoxy-2-(2-methylpyridin-4-yl)-N-[3-(1H-pyrazol-5-yl)propyl]quinoline-7-carboxamide] the same measures were 2%, 96% and 0.01 to 0.05 µM.
For the compound `CCOc1cc(-c2cccnc2OC)nc2cc(C(=O)NCCCc3ccn[nH]3)ccc12` [Compound I-150, 4-ethoxy-2-(2-methoxypyridin-3-yl)-N-[3-(1H-pyrazol-5-yl)propyl]quinoline-7-carboxamide], in test [1], the viability at 1.667 µM stood at 2%. Moreover, in test [2], the inhibition at 1 µM stood at 95% and the IC50 lay in the range of 0.01 to 0.05 µM.
Regarding `CCNc1cc(-c2ccc(F)cc2)nc2cc(C(=O)NCCCc3nnc[nH]3)ccc12` [Compound I-151, 4-(ethylamino)-2-(4-fluorophenyl)-N-[3-(4H-1,2,4-triazol-3-yl)propyl]quinoline-7-carboxamide], in test [1], the viability at 1.667 µM turned out to be 3%. In test [2], the inhibition at 1 µM came to 61% and the half-maximal inhibitory concentration (IC50) is more than 0.1 µM.
Taken in the same sequence, the figures for `CCCc1cc(-c2ccc(F)cc2)nc2cc(C(=O)NCCc3c[nH]nc3C)ccc12` [Compound I-152, 2-(4-fluorophenyl)-N-[2-(3-methyl-1H-pyrazol-4-yl)ethyl]-4-propylquinoline-7-carboxamide] were 2%, 84% and more than 0.1 µM.
Consider `CCOc1cc(-c2ccc(OC)nc2)nc2cc(C(=O)NCCc3cn[nH]c3C)ccc12` [Compound I-153, 4-ethoxy-2-(6-methoxypyridin-3-yl)-N-[2-(5-methyl-1H-pyrazol-4-yl)ethyl]quinoline-7-carboxamide], for which the viability at 1.667 µM in test [1] amounted to 2%. For the same compound, in test [2], the inhibition at 1 µM is 98% and the IC50 was in the range of 0.01 to 0.05 µM.
For `CCOc1cc(-c2ccc(OC)nc2)nc2cc(C(=O)NCCCc3ccn[nH]3)ccc12` [Compound I-154, 4-ethoxy-2-(6-methoxypyridin-3-yl)-N-[3-(1H-pyrazol-5-yl)propyl]quinoline-7-carboxamide] the same measures were 3%, 96% and 0.01 to 0.05 µM.
For `CCOc1cc(-c2ccnc(OC)c2)nc2cc(C(=O)NCCCc3ccn[nH]3)ccc12` [Compound I-155, 4-ethoxy-2-(2-methoxypyridin-4-yl)-N-[3-(1H-pyrazol-5-yl)propyl]quinoline-7-carboxamide] the same measures were 2%, 98% and 0.01 to 0.05 µM.
Taken in the same sequence, the figures for `COCCOc1cc(-c2ccc(F)cc2)nc2cc(C(=O)NCCCc3ncc[nH]3)ccc12` [Compound I-156, 2-(4-fluorophenyl)-N-[3-(1H-imidazol-2-yl)propyl]-4-(2-methoxyethoxy)quinoline-7-carboxamide] were 2%, 100% and less than 0.01 µM.
